Assay results as given in patent US4021557A, “11-Aminoalkyl-pyridobenzodiazepinones and salts thereof” (Boehringer Ingelheim GmbH, priority 1974, dated 1977).

Assays:
[1] = system: acetylcholine-induced bronchospasm; experiment: Antagonism to acetylcholine-provoked bronchospasm in anesthetized guinea pigs (Konzett and Rossler), i.v.; antiasthmatic / bronchospasmolytic activity; type: in vivo; details: guinea pig; for ED50: Cavia porcellus, iv, 20γ acetylcholine per kg i.v., graphic extrapolation, read-out: Bronchospasmolytic ED50 against acetylcholine-induced bronchospasm
Experimental: The antiasthmatic activity was tested as the antagonism to bronchospasm provoked by intravenous administration of 20γ of acetylcholine per kg body weight in anesthetized guinea pigs (according to method of Konzett and Rossler). From the average percentage decrease of the bronchospasm produced by administering various doses of the compounds of the […] invention an ED50 was determined by graphic extrapolation. The compounds were administered intravenously.

[2] = Acute toxicity after i.v. administration in NMRI-mice (Litchfield and Wilcoxon); details: mouse, in vivo, iv, both sexes, deaths within 14 days, read-out: LD50 in the mouse after i.v. application
Experimental: The acute toxicity was determined with NMRI-mice of both sexes (body weight 20 gm) after intravenous administration of the compound. 0.1 ml of a 0.9% sodium chloride solution per 10gm of animal was used as the vehicle.

heart rate = experiment: Effect on heart rate of the anesthetized cat after intravenous administration; type: in vivo; design: key to type of the reaction (heart rate): --: decrease in heart rate; details: i.v.; for ED10 (dose leading to a 10% alteration of the heart rate) / ED25 (dose leading to a 25% alteration of the heart rate): graphic extrapolation; for type of the reaction (heart rate): tested dosage range 250 - 4,000 γ/kg (A 12.5 - 16,000; W 125 - 4,000)
Experimental: The effect on the heart rate was tested on cats of both sexes (body weight between 2.3 and 3.5 kg) under chloralose-urethane anesthesia. The heart rate was continuously registered by means of a Grass-tachograph 7P4, controlled by the R-wave of the electrocardiogram. The test compound was injected through a catheter introduced into the vena femoralis.

quantity of secretion = experiment: Expectorant (secretolytic) activity in anesthetized guinea pigs (Perry et al, modified by Engelhorn et al), oral; type: in vivo; details: guinea pig, over 2 hours
Experimental: The expectorant activity was ascertained by the method of Perry et al, J. Pharmcol. exp. Therap. 73, 65 (1941), as modified by Engelhorn et al, Arzneim. Forsch. 21, 1045 (1971), on male guinea pigs (body weight from 450 to 550 gm), which has been anesthetized by intraperitoneal injection of a 25% urethane solution (1.0 gm/kg). The test compound was administered orally at the indicated dosage levels, each in 2 ml of distilled water, by means of an esophageal tube. 5 tests per dose. The increase in secretion was calculated from the quantity of fluid secreted over a period of 2 hours after administration of the test compound, as compared to the quantity secreted without administration of the test compound.

SMILES | ED50 [1] [mg/kg] | Average duration of effective action in the ED50 range [1] [min] | LD50 at 336 h [2] [mg/kg] | ED10 (dose leading to a 10% alteration of the heart rate) (heart rate) | ED25 (dose leading to a 25% alteration of the heart rate) (heart rate) | type of the reaction (heart rate) (heart rate) | percent change in quantity of secretion (increase) (quantity of secretion; dose 0.5 γ/kg) [%] | percent change in quantity of secretion (increase) (quantity of secretion; dose 5 γ/kg) [%]
CCN(CC)CCCN1c2ccccc2N(C)C(=O)c2cccnc21.Cl [A, 11-(3'-diethylamino-n-propyl)-6,11-dihydro-6-methyl-5H-pyrido[2,3-b][1,5]benzodiazepin-5-one hydrochloride] | 0.031 | > 130 | 62.3 | 2,100 γ/kg | > 16,000 γ/kg | -- | 80 | 114
CC(C)N(CCCN1c2ccccc2N(C)C(=O)c2cccnc21)C(C)C.Cl [J, 6,11-dihydro-11-(3'-diisopropylamino-n-propyl)-6-methyl-5H-pyrido[2,3-b][1,5]benzodiazepin-5one hydrochloride] | 0.0165 | 50 | 22.6 | 1,950 γ/kg | > 4,000 γ/kg | -- | 108 | 
CCN(CCCN1c2ccccc2N(C)C(=O)c2cccnc21)C(C)C.Cl [K, 11-[3'-(n-ethyl-N-isopropyl-amino)-n-propyl]-6,11-dihydro-6-methyl-5H-pyrido[2,3-b][1,5]benzodiazepin-5-one hydrochloride] | 0.02 | > 80 | 30 | 1,350 γ/kg | > 4,000 γ/kg | -- | 113 | 
CC(C)N(CCN1c2ccccc2N(C)C(=O)c2cccnc21)C(C)C.Cl [I, 6,11-dihydro-11-(2'-diisopropylamino-ethyl)-6-methyl-5H-pyrido[2,3-b][1,5]benzodiazepin-5-one hydrochloride] | 0.018 | 40 | 30.3 | 1,300 γ/kg | > 4,000 γ/kg | -- |  | 
CC(C)N(CCCN1c2ccccc2C(=O)N(C)c2cccnc21)C(C)C.Cl [T, 5,11-dihydro-11-(3'-diisopropylamino-n-propyl)-5-methyl-6H-pyrido[2,3-b][1,4]benzodiazepin-6-one hydrochloride] | 0.0165 | 50 | 22.2 | 1,400 γ/kg | 3,600 γ/kg | -- |  | 
